Measurements: patent publication US20080220103A1, “METHOD FOR TREATING/CONTROLLING/KILLING FUNGI AND BACTERIA ON LIVING ANIMALS” (priority 2005, published 2008)
Where two headings read alike, the source gives them in different places.

Legend:
E. floccosum = assay: MIC, modified CLSI M38A broth dilution; format: cell-based, Epidermophyton floccosum
Description: (§1) Minimum Inhibitory Concentration (MIC): Minimum inhibitory concentrations of synthetic and semisynthetic and natural products against dermatophytes were determined using a modification of the Clinical Laboratory Standards Institute (CLSI, formerly National Committee of Clinical Laboratory Standards, NCCLS) M38A standard method for dermatophytes, while MIC of these agents against Candida species were determined using the CLSI M27-A2 methodology. The method used to determine the MIC against bacteria was based on the CLSI document M7-A7.
(§2) For dermatophytes, serial dilutions of terbinafine, tolnaftate were prepared in a range of 0.004-2 μg/ml, while for miconazole concentrations ranged between 0.015-8 μg/ml. Finally, for essential oils, the concentrations tested were between 0.03-16 μg/ml. The only exception was tea tree oil where dilutions were prepared in a range of 0.0078-4 μg/ml. The MIC was read at 4 days post inoculation and defined as the lowest concentration of an agent to inhibit 80% of fungal growth as compared to the growth control (Table 2).

T. rubrum [1] = assay: MIC, modified CLSI M38A broth dilution; format: cell-based, Trichophyton rubrum
Description: as §1, §2

T. mentagrophytes = assay: MIC, modified CLSI M38A broth dilution; format: cell-based, Trichophyton mentagrophytes
Description: as §1, §2

All dermatophytes = assay: MIC, modified CLSI M38A, pooled dermatophytes; format: cell-based, E. floccosum, T. rubrum, T. mentagrophytes
Description: as §1, §2
(§3) In the following Tables, MIC50 and MIC90 are defined as the minimal concentrations of a compound that can inhibit 50% and 90% of the tested organisms, respectively.

T. rubrum [2] = assay: Minimum fungicidal concentration (Canton et al.); format: cell-based, Trichophyton rubrum; conditions: for MFC: Trichophyton rubrum
Description: Minimum fungicidal concentration (MFC): The minimum fungicidal concentrations of various agents were determined using the technique described by Canton et al. (Antimicrob Agents Chemother. 2004 8:2477-82). In that method, fungal conidia were collected following growth on potato dextrose agar (PDA) plates and were used to inoculate 96-well plates containing different concentrations of agents. Following incubation at 35° C. for 4 days (for dermatophytes) or 24 hours (for yeast), wells showing no visible growth were cultured to determine the MFC (defined as the lowest concentration of a given agent that kills>99.999% of fungal conidia or spores). The MFC value represents the level of the agent at which spores or conidia were killed.

C. albicans = assay: MIC, CLSI M27-A2; format: cell-based, Candida albicans
Description: as §1
(§4) The remaining essential oils were prepared in a dilution range of 0.03-16 μg/ml. For Candida the MIC was read at 24 hours and defined as the lowest concentration to inhibit 50% of fungal growth as compared to the growth control (Table 4).

C. parapsilosis = assay: MIC, CLSI M27-A2; format: cell-based, Candida parapsilosis
Description: as §1, §4

All yeasts = assay: MIC, CLSI M27-A2, pooled yeasts; format: cell-based, C. albicans, C. parapsilosis; conditions: n = 12
Description: as §1, §4, §3

S. aureus = assay: MIC, CLSI M7-A7, Mueller-Hinton; format: cell-based, Staphylococcus aureus; conditions: for MIC Range: n = 6 printed
Description: as §1
(§5) For bacterial species, the medium used to evaluate the antibacterial activity of agents and essential oils was Mueller-Hinton (Oxoid Ltd., Basingstoke, Hampshire, England). Serial dilutions of miconazole, terbinafine, and tolnaftate were prepared in a range of 0.125-64 μg/ml and serial dilutions of tea tree oil were prepared in a range of 0.0078-4 μg/ml, while those for the rest of the essential oils were prepared in a range 0.031-16 μg/ml.

S. epidermidis = assay: MIC, CLSI M7-A7, Mueller-Hinton; format: cell-based; conditions: Staphylococcus epidermidis
Description: as §1, §5

[3] = system: All bacteria (Staphylococcus species); assay: MIC, CLSI M7-A7, pooled bacteria; format: cell-based, S. aureus, S. epidermidis; conditions: Staphylococcus, n = 12
Description: as §1, §5, §3

[4] = Epidermophyton floccosum, E. floccosum, n = 6
[5] = Trichophyton rubrum, T. rubrum, n = 6
[6] = Trichophyton mentagrophytes, T. mentagrophytes, n = 6
[7] = Candida albicans, C. albicans, n = 6
[8] = Lodderomyces parapsilosis, C. parapsilosis, n = 6
[9] = Staphylococcus aureus, S. aureus

Cc1cccc(N(C)C(=S)Oc2ccc3ccccc3c2)c1 [Tolnaftate, tolnaftate]
> 64 µg/mL: MIC Range (C. albicans; C. albicans, n = 6) | MIC (C. albicans; Candida albicans, 24 h, C. albicans strain 1740, 50% inhibition, 24 hours, read-out: MIC) | MIC (C. albicans; Candida albicans, C. albicans strain 2153, read-out: MIC) | MIC (C. albicans; Candida albicans, C. albicans strain 8280 (multi-resistant), read-out: MIC) | MIC (C. albicans; Candida albicans, C. albicans strain 8283, read-out: MIC) | MIC (C. albicans; Candida albicans, C. albicans strain 8364, read-out: MIC) | MIC50 (C. albicans; [7]) | MIC90 (C. albicans; [7]) | MIC90 (All yeasts) | MIC Range (S. aureus; S. aureus, listed as tolnaftate) | MIC50 (S. aureus; [9]) | MIC90 (S. aureus; [9]) | MIC (S. aureus; Staphylococcus aureus, S. aureus strain 730, 80% inhibition, 16 h, read-out: MIC) | MIC (S. aureus; Staphylococcus aureus, S. aureus strain 732, read-out: MIC) | MIC (S. epidermidis; S. epidermidis strain 8475, read-out: MIC) | MIC (S. epidermidis; S. epidermidis strain 8476, read-out: MIC) | MIC (S. epidermidis; S. epidermidis strain 8477, read-out: MIC) | MIC90 (S. epidermidis; S. epidermidis, n = 6) | MIC50 [3] | MIC90 [3]
0.008 to 0.125 µg/mL: MIC Range (T. mentagrophytes; T. mentagrophytes, n = 6) | MIC Range (All dermatophytes; n = 18, listed as tolnaftate)
0.015 µg/mL: MIC (T. rubrum [1]; Trichophyton rubrum, T. rubrum strain 1967) | MIC (T. rubrum [1]; Trichophyton rubrum, T. rubrum strain 2098) | MIC (T. rubrum [1]; Trichophyton rubrum, T. rubrum strain 8071) | MIC (T. rubrum [1]; Trichophyton rubrum, T. rubrum strain 8092) | MIC50 (T. rubrum [1]; [5]) | MIC90 (T. rubrum [1]; [5])
0.004 µg/mL: MIC (T. mentagrophytes; Trichophyton mentagrophytes, T. mentagrophytes strain 2126)
0.06 to 0.125 µg/mL: MIC Range (E. floccosum; E. floccosum, n = 6) | MFC range (row MIC Range) (T. rubrum [2]; T. rubrum, n = 6)
0.125 µg/mL: MIC (E. floccosum; Epidermophyton floccosum, E. floccosum strain 1926) | MIC (E. floccosum; Epidermophyton floccosum, E. floccosum strain 1961) | MIC90 (E. floccosum; [4]) | MIC (T. mentagrophytes; Trichophyton mentagrophytes, T. mentagrophytes strain 2128) | MIC90 (T. mentagrophytes; [6]) | MIC90 (All dermatophytes; n = 18) | MFC (T. rubrum [2]; T. rubrum strain 8092, read-out: MFC) | MFC (T. rubrum [2]; T. rubrum, n = 6, read-out: MFC, row MIC90)
8 µg/mL: MIC (C. parapsilosis; Lodderomyces parapsilosis, C. parapsilosis strain 7668) | MIC (C. parapsilosis; Lodderomyces parapsilosis, C. parapsilosis strain 7672) | MIC (C. parapsilosis; Lodderomyces parapsilosis, C. parapsilosis strain 7995) | MIC (C. parapsilosis; Lodderomyces parapsilosis, C. parapsilosis strain 8148) | MIC50 (C. parapsilosis; [8]) | MIC90 (C. parapsilosis; [8])
0.5 µg/mL: MIC (C. parapsilosis; Lodderomyces parapsilosis, C. parapsilosis strain 7629)
>64 µg/mL: MIC (C. albicans; C. albicans strain 8280 (multi-resistant)) | MIC (S. aureus; S. aureus strain 733) | MIC (S. aureus; S. aureus strain 734) | MIC (S. aureus; S. aureus strain 8470) | MIC Range (S. aureus; S. aureus, listed as TOLNAFTATE)
0.008 µg/mL: MIC (T. rubrum [1]; Trichophyton rubrum, T. rubrum strain 2246) | MIC (T. rubrum [1]; Trichophyton rubrum, T. rubrum strain 8063) | MIC (T. mentagrophytes; Trichophyton mentagrophytes, T. mentagrophytes strain 1720)
2 µg/mL: MIC (S. epidermidis; S. epidermidis strain 8472, read-out: MIC) | MIC (S. epidermidis; S. epidermidis strain 8474, read-out: MIC) | MIC (S. epidermidis; S. epidermidis, two strains, read-out: MIC values)
64 µg/mL: MIC (C. albicans; Candida albicans, C. albicans strain 2108, read-out: MIC)
0.06 µg/mL: MIC (E. floccosum; Epidermophyton floccosum, E. floccosum strain 1666) | MIC (E. floccosum; Epidermophyton floccosum, E. floccosum strain 1798) | MIC (E. floccosum; Epidermophyton floccosum, E. floccosum strain 1925) | MIC (E. floccosum; Epidermophyton floccosum, E. floccosum strain 2165) | MIC50 (E. floccosum; [4]) | MIC (T. mentagrophytes; Trichophyton mentagrophytes, T. mentagrophytes strain 2124) | MIC (T. mentagrophytes; Trichophyton mentagrophytes, T. mentagrophytes strain 2125) | MIC (T. mentagrophytes; Trichophyton mentagrophytes, T. mentagrophytes strain 2127) | MIC50 (T. mentagrophytes; [6]) | MIC50 (All dermatophytes; n = 18) | MFC (T. rubrum [2]; T. rubrum strain 1967, read-out: MFC) | MFC (T. rubrum [2]; T. rubrum strain 2098, read-out: MFC) | MFC (T. rubrum [2]; T. rubrum strain 2246, read-out: MFC) | MFC (T. rubrum [2]; T. rubrum strain 8063, read-out: MFC) | MFC (T. rubrum [2]; T. rubrum strain 8071, read-out: MFC) | MFC (T. rubrum [2]; T. rubrum, n = 6, read-out: MFC, row MIC50)
0.008 to 0.015 µg/mL: MIC Range (T. rubrum [1]; T. rubrum, n = 6)
16 µg/mL: MIC (C. parapsilosis; Lodderomyces parapsilosis, C. parapsilosis strain 8442) | MIC50 (All yeasts) | MIC (S. epidermidis; S. epidermidis strain 8473, read-out: MIC) | MIC50 (S. epidermidis; S. epidermidis, n = 6)
8 to 16 µg/mL: MIC (C. parapsilosis; Lodderomyces parapsilosis, C. parapsilosis, the other isolates (not #7629))
0.5 to 16 µg/mL: MIC Range (C. parapsilosis; C. parapsilosis, n = 6)
